Publication PMC13308190, “Endothelial progenitor cell susceptibility to DNA damaging and DDR-modulating compounds determines endothelial differentiation accuracy” (Stem Cell Research & Therapy, 2026)

Key:
Format in all cases: cell-based, mouse
mESC [1] = test: Western blot protein expression (densitometry); conditions: mESC 24 h; for H3ac protein / H4ac protein / aTubac (acetylated α-Tubulin) protein: Fig 1D; for AMPKa protein / GSK3b protein / p-p70SK protein: Fig 6E
Summary of the method: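 Whole-cell RIPA extracts (probe sonication) quantified by DC assay; 20 µg protein resolved by SDS-PAGE, blotted to nitrocellulose. Blocked 1 h RT in 5% milk or BSA/TBST; primary antibodies 1:500–5000 overnight 4 °C, peroxidase secondary 1:2000 2 h RT. Chemiluminescent bands imaged, levels by densitometry.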

EC d4 [2] = test: Nuclear γH2AX / 53BP1 foci (DSB); conditions: EC d4 48 h, equitoxic concentrations
Protocol: (§1) DNA double-strand breaks were monitored by immunocytochemical detection of nuclear γH2AX and 53BP1 foci. Cells were fixed with 3.7% formaldehyde/PBS (15 min, RT) and permeabilized (0.3% TritonX/PBS; 15 min, RT). […] Cell suspension was mixed with 0.5% low melting point agarose and applied onto glass slides coated with 1.5% agarose. After lysis in alkaline buffer (pH 10, 1 h, 4 °C, protected from light) and DNA denaturation in precooled electrophoresis buffer (pH > 13, 25 min, 4 °C, protected from light) electrophoresis was performed (300 mA, 25 V, 4 °C, 25 min).

mESC [3] = test: Nuclear γH2AX / 53BP1 foci (DSB); conditions: mESC 24 h, equitoxic concentrations
Protocol: as §1

mESC [4] = test: EdU incorporation (S-phase activity); conditions: mESC 24 h
EC d6 [5] = test: DNA fiber spreading assay; conditions: EC d6 24 h; HU: 5 mM, 1 h
Protocol: (§2) To analyze DNA replication fork progression, the DNA fiber spreading assay was performed. Briefly, cells were pulse-labeled with 20 µM CldU (20 min, 37 °C, 5% C0_2) and immediately afterwards with 200 µM IdU (20 min, 37 °C, 5% C02). Cell suspension was applied onto glass slides followed by cell lysis (0.5% SDS, 200 mM Tris–HCl, 50 mM EDTA). After incubation (6 min, RT), slides were tilted upwards to stretch the fibers, dried 6 min lying horizontally flat and fixed (5 min, RT) in methanol: acetic acid (3:1). After drying (7 min, lying horizontally flat) slides were stored overnight in 70% ethanol (4 °C). The next day samples were incubated in 100% methanol (5 min, RT) followed by denaturation in 2.5 M HCl (1 h, RT) and blocking (5% BSA in PBS, 1 h, 37 °C). DNA Fibers were stained with rat anti-BrdU (1:40) for CldU detection and mouse anti-BrdU (1:70) for IdU detection (in 0.5% BSA/PBS; 1 h, RT). After washing (0.05% Tween 20 in PBS and PBS) incubation with secondary antibodies anti-rat 488 (1:400) and anti-mouse 555 (1:250) was performed (1 h, RT, 0.5% BSA in PBS). Following washing with 0.05% Tween 20 in PBS and PBS, the slides were mounted with Fluoroshield (Sigma [Steinheim, Germany]). DNA fibers were analyzed microscopically (Olympus BX43 fluorescence microscope [40 objective]). The length of CldU (green) and IdU (red) tract was measured using ImageJ software, analyzing 200 fibers per experimental condition.

mESC [6] = test: DNA fiber spreading assay; conditions: mESC 24 h; HU: 5 mM, 1 h
Protocol: as §2

EC d4 [7] = test: Beta-galactosidase staining (senescence); conditions: EC d4 48 h
Protocol: (§3) Beta-galactosidase activity was analyzed using the Cellular Senescence Assay Kit (Cell Biolabs, Inc., San Diego, CA, USA) according to the manufacturer’s instructions. After treatment and/or post-incubation period, the cells were fixed and stained (overnight, 37 °C). For control, untreated cells were incubated with working solution containing citrate-Na2HPO4 buffer at pH 4. The cells were analyzed by light microscopy (Axiovert 40 C, Carl Zeiss AG, 20x objective) and the fraction of beta-galactosidase positive (blue) cells was calculated (5 images per sample).

EC d6 [8] = test: Beta-galactosidase staining (senescence); conditions: EC d6 24 h + 24 h post incubation
Protocol: as §3

EC d6 [9] = test: ZO1 tight junction immunofluorescence; conditions: analysed 2 days later
EC d4 [10] = test: Dil-acLDL uptake; conditions: EC d4 treated 48 h
Protocol: To monitor prototypical functions of endothelial cells, the uptake of fluorescent 1,1-dioctadecyl-3,3,3,3-tetra-methylindocarbocyanine-labeled acetylated LDL (Dil-acLDL) was examined. Briefly, cells were incubated with Dil-acLDL (10 µg/ml, 4 h, 37 °C). After fixation (3.7% cold formaldehyde/PBS (15 min, RT) nuclei were counterstained with DAPI. The uptake of DiI-acLDL was analyzed by fluorescence microscopy (Olympus BX43, 20x objective). Additionally, the response of differentiated EC to inflammatory cytokines was measured. After treatment with a pro-inflammatory cytokine mixture (TNFα/IL-1β, 10 ng/mL) for 1 h, mRNA expression of activated EC markers E-selectin, Icam-1, Vcam-1, Ccl2, eNos, iNos was analyzed (RT-qPCR).

[11] = Fig 5D, concentration 1 (Dox 1/B02 1/EST 1)
[12] = Fig 5D, concentration 2 (Dox 2/B02 2/EST 2)

| SMILES | H3ac protein (mESC [1]) | H4ac protein (mESC [1]) | aTubac (acetylated α-Tubulin) protein (mESC [1]) | CHK1 protein (mESC [1]; Fig 4H, Eto, Dox 1, B02, EST) | p-ATR protein (mESC [1]; Fig 4H, Eto, Dox 1, B02, EST) | p-CHK1 protein (mESC [1]; Fig 4H, Eto, Dox 1, B02, EST) | p-RPA32 protein (mESC [1]; Fig 4H, Eto, Dox 1, B02, EST) | p-p53 protein (mESC [1]; Fig 4H, Eto, Dox 1, B02, EST) | CHK1 protein (mESC [1]; [11]) | RAD51 protein (mESC [1]; [11]) | gH2AX protein (mESC [1]; [11]) | p-CHK2 protein (mESC [1]; [11]) | p-KAP1 protein (mESC [1]; [11]) | p-RPA32 protein (mESC [1]; [11]) | p-p53 protein (mESC [1]; [11]) | CHK1 protein (mESC [1]; [12]) | RAD51 protein (mESC [1]; [12]) | gH2AX protein (mESC [1]; [12]) | p-CHK2 protein (mESC [1]; [12]) | p-KAP1 protein (mESC [1]; [12]) | further results |
| --- | --- | --- | --- | --- | --- | --- | --- | --- | --- | --- | --- | --- | --- | --- | --- | --- | --- | --- | --- | --- | --- |
| COc1cccc2c1C(=O)c1c(O)c3c(c(O)c1C2=O)C[C@@](O)(C(=O)CO)C[C@@H]3O[C@H]1C[C@H](N)[C@H](O)[C@H](C)O1 [Dox, doxorubicin] | 0.3 Fold of mESC | 0.0 Fold of mESC | 0.5 Fold of mESC | 1.0 Fold of mESC | 1.9 Fold of mESC | 2.4 Fold of mESC | 1.1 Fold of mESC | 6.4 Fold of mESC | 1.7 Fold of mESC | 1.2 Fold of mESC | 69.7 Fold of mESC | 1.1 Fold of mESC | 31.2 Fold of mESC | 1.4 Fold of mESC | 4.2 Fold of mESC | 1.8 Fold of mESC | 0.9 Fold of mESC | 174.9 Fold of mESC | 1.5 Fold of mESC | 59.9 Fold of mESC | CHK1 protein (mESC [1]; Fig 4H, Dox 2): 1.3 Fold of mESC; p-ATR protein (mESC [1]; Fig 4H, Dox 2): 2.7 Fold of mESC; p-CHK1 protein (mESC [1]; Fig 4H, Dox 2): 4.4 Fold of mESC; p-RPA32 protein (mESC [1]; Fig 4H, Dox 2): 1.5 Fold of mESC; p-p53 protein (mESC [1]; Fig 4H, Dox 2): 6.5 Fold of mESC; p-RPA32 protein (mESC [1]; [12]): 1.8 Fold of mESC; p-p53 protein (mESC [1]; [12]): 5.7 Fold of mESC; AMPKa protein (mESC [1]): 0.2 Fold of mESC; GSK3b protein (mESC [1]): 0.8 Fold of mESC; p-p70SK protein (mESC [1]): 1.1 Fold of mESC; DSB numbers (γH2AX / 53BP1 foci) (EC d4 [2]): clear increase; nuclear γH2AX foci (mESC [3]): significant increase; number of EdU-positive cells (mESC [4]): significant drop; replication fork progression (EC d6 [5]): did not influence fork speed; replication fork progression (mESC [6]): accelerated fork progression; percentage of beta-Gal-positive cells (EC d4 [7]): increase; percentage of beta-Gal-positive cells (EC d6 [8]): increase; ZO1 assembly in treated EC d6 (EC d6 [9]): clearly visible gaps; LDL uptake in EC d6 progeny of treated EC d4 (EC d4 [10]): noticably reduced LDL uptake |
| Nc1ccccc1NC(=O)c1ccc(CNC(=O)OCc2cccnc2)cc1 [EST, entinostat] | 16.6 Fold of mESC | 7426.8 Fold of mESC | 1.0 Fold of mESC | 1.0 Fold of mESC | 2.9 Fold of mESC | 0.1 Fold of mESC | 1.3 Fold of mESC | 0.9 Fold of mESC | 0.8 Fold of mESC | 1.4 Fold of mESC | 7.7 Fold of mESC | 1.0 Fold of mESC | 2.9 Fold of mESC | 0.7 Fold of mESC | 0.9 Fold of mESC | 0.7 Fold of mESC | 1.4 Fold of mESC | 10.1 Fold of mESC | 1.0 Fold of mESC | 8.2 Fold of mESC | p-RPA32 protein (mESC [1]; [12]): 0.7 Fold of mESC; p-p53 protein (mESC [1]; [12]): 0.8 Fold of mESC; AMPKa protein (mESC [1]): 0.5 Fold of mESC; GSK3b protein (mESC [1]): 1.2 Fold of mESC; p-p70SK protein (mESC [1]): 0.8 Fold of mESC; DSB numbers (γH2AX / 53BP1 foci) (EC d4 [2]): clear increase; nuclear γH2AX foci (mESC [3]): significant increase; replication fork progression (EC d6 [5]): opposite effects; replication fork progression (mESC [6]): promoted new DNA strand synthesis; percentage of beta-Gal-positive cells (EC d4 [7]): increase; percentage of beta-Gal-positive cells (EC d6 [8]): increase; ZO1 assembly in treated EC d6 (EC d6 [9]): clearly visible gaps |
| O=c1c2ccccc2nc(/C=C/c2cccnc2)n1Cc1ccccc1 [B02] | 1.8 Fold of mESC | 232.9 Fold of mESC | 0.5 Fold of mESC | 1.4 Fold of mESC | 2.7 Fold of mESC | 0.8 Fold of mESC | 2.0 Fold of mESC | 1.2 Fold of mESC | 0.8 Fold of mESC | 1.9 Fold of mESC | < 0.1 Fold of mESC | 0.9 Fold of mESC | 1.30 Fold of mESC | 0.8 Fold of mESC | 0.9 Fold of mESC | 1.0 Fold of mESC | 2.3 Fold of mESC | 0.5 Fold of mESC | 1.1 Fold of mESC | 1.26 Fold of mESC | p-RPA32 protein (mESC [1]; [12]): 1.3 Fold of mESC; p-p53 protein (mESC [1]; [12]): 1.2 Fold of mESC; AMPKa protein (mESC [1]): 0.2 Fold of mESC; GSK3b protein (mESC [1]): 1.3 Fold of mESC; p-p70SK protein (mESC [1]): 1.2 Fold of mESC; DSB numbers (γH2AX / 53BP1 foci) (EC d4 [2]): clear increase; nuclear γH2AX foci (mESC [3]): significant increase; number of EdU-positive cells (mESC [4]): not; ZO1 assembly in treated EC d6 (EC d6 [9]): clearly visible gaps; LDL uptake in EC d6 progeny of treated EC d4 (EC d4 [10]): strongest functional defect |
